Reference: US12697366B2, “Thermogenic compositions and methods” (Ohio State Innovation Foundation, priority 2016, dated 2026)
Non-standard residues stand in square brackets, D forms with d. Residues, ends and D or L forms follow the SMILES beside them. ξ: configuration not given here. *: point of attachment. Succinyl(20-O-(20S)-CPT) = CC[C@@]1(OC(=O)CCC(=O)*)C(=O)OCc2c1cc1n(c2=O)Cc2cc3ccccc3nc2-1; ξK = NCCCCC(N)C(=O)O; ξC = NC(CS)C(=O)O

Assays:
A549 = assay: MTT cytotoxicity on A549; type: cell-based; settings: Homo sapiens
Protocol: (§1) The non-oxidized CPT-CCKK nanotube was assessed for cytotoxic efficacy against human non-small cell lung cancer (NSCLC) cell lines A549, NCI-460, and NCI-H23, which were selected according to the indications of approved CPT derivative Topotecan. […] The explanation for the cytotoxicity results could be that CPT-CCKK release active CPT in a time-dependent manner, and the entire true concentration for CPT in the cell medium is less than that of free CPT. […] It has been reported before that the GSH level in H460 was almost twice higher than that in A549. Therefore, higher concentration of GSH in H460 accelerated the breakage of the disulfide bonds within the crosslinked CPT-CCKK nanotubes, leading to faster release of active CPT and higher in vitro cytoxicity.

NCI-460 = assay: MTT cytotoxicity on NCI-460 (H460); type: cell-based; settings: Homo sapiens
Protocol: as §1

NCI-H23 = assay: MTT cytotoxicity on NCI-H23; type: cell-based, human
Protocol: as §1

3T3-L1 cells = assay: LDH release cytotoxicity (CytoTox 96) in 3T3-L1 cells; type: cell-based, mouse; settings: different concentrations, 6 hours
Protocol: Non-differentiated, 90% confluent 3T3-L1 cells were incubated with different concentrations of nanoscaffolds #1, #2, or #3 for 6 hours. Cytotoxicity was measured the lactate dehydrogenase (LDH), released upon cell lysis using The CytoTox 96 assay (Promega, Cat #G1780).

CC[C@@]1(O)C(=O)OCc2c1cc1n(c2=O)Cc2cc3ccccc3nc2-1 [CPT, Camptothecin]
IC50 (A549; 96 h MTT, experiment with non-oxidized nanotube (FIG. 36A)): 200 nM
IC50 (A549; experiment with crosslinked nanotubes (FIG. 36B)): ~830 nM
IC50 (NCI-460; NCI-460, 96 h MTT, experiment with non-oxidized nanotube (FIG. 36A)): 270 nM
IC50 (NCI-460; H460, experiment with crosslinked nanotubes (FIG. 36B)): 350 nM
IC50 (NCI-H23; Homo sapiens, NCI-H23, 96 h MTT, experiment with non-oxidized nanotube (FIG. 36A)): 190 nM

CC[C@@]1(OC(=O)CCC(=O)NC(CS)C(=O)NC(CS)C(=O)NC(CCCCN)C(=O)NC(CCCCN)C(N)=O)C(=O)OCc2c1cc1n(c2=O)Cc2cc3ccccc3nc2-1 (stereo partly drawn) [CPT-CCKK] ({Succinyl(20-O-(20S)-CPT)}-[ξC][ξC][ξK][ξK]-NH2)
less cytotoxic than parental drug CPT (NCI-H23; H23 cell lines): roughly 3 folds

CCN(CC)c1ccc2cc(C(=O)NCCCC[C@H](NC(=O)[C@H](CCCCN)NC(=O)OCC3c4ccccc4-c4ccccc43)C(N)=O)c(=O)oc2c1 [nanoscaffold #2, Fmoc-KK(DAC)]
cytotoxicity (LDH release) (3T3-L1 cells): not toxic

Fmoc-KK(SucBz) [nanoscaffold #1]
cytotoxicity (LDH release) (3T3-L1 cells): not toxic
